From patent publication US20250188040A1, “PHARMACEUTICAL COMPOSITIONS COMPRISING WRN HELICASE INHIBITORS” (Vividion Therapeutics, Inc., priority 2022, published 2025)
Where two headings read alike, the source gives them in different places.

Assays:
[1] = target: T1, WRN C727 (Homo sapiens, UniProt Q14191); assay: Target engagement, in vitro (lysate), OCI-AML2; type: binding; details: read-out: OCI-AML2 WRN C727 TE50 in vitro (lysate)
T1 construct: endogenous in cells; host or cells: OCI-AML2
Method: Cells or cell lysates were treated with a dose response of compound followed by probe treatment, which labels solvent exposed cysteines. Proteins were enzymatically digested with trypsin and probe-labelled peptides were enriched with streptavidin. Isolated peptides were then separated using reversed-phase liquid chromatography on a C18 column (Dionex Ultimated 3000 nano-LC, Thermo). Peptides were analyzed by parallel reaction monitoring mass spectrometry (Exploris 120, Thermo).
Target engagement (%) is calculated relative to DMSO treated control samples.

[2] = target: hWRN(519-1227)_C-H3CV-GFP-10His (Homo sapiens, UniProt Q14191); assay: Helicase Assay for WRN Inhibition (ATP-dependent, fluorescence based)
[3] = WRN Helicase IC50, 30 min preincubation with ATP, 30 min reaction

T1 sequence (Q14191 whole entry): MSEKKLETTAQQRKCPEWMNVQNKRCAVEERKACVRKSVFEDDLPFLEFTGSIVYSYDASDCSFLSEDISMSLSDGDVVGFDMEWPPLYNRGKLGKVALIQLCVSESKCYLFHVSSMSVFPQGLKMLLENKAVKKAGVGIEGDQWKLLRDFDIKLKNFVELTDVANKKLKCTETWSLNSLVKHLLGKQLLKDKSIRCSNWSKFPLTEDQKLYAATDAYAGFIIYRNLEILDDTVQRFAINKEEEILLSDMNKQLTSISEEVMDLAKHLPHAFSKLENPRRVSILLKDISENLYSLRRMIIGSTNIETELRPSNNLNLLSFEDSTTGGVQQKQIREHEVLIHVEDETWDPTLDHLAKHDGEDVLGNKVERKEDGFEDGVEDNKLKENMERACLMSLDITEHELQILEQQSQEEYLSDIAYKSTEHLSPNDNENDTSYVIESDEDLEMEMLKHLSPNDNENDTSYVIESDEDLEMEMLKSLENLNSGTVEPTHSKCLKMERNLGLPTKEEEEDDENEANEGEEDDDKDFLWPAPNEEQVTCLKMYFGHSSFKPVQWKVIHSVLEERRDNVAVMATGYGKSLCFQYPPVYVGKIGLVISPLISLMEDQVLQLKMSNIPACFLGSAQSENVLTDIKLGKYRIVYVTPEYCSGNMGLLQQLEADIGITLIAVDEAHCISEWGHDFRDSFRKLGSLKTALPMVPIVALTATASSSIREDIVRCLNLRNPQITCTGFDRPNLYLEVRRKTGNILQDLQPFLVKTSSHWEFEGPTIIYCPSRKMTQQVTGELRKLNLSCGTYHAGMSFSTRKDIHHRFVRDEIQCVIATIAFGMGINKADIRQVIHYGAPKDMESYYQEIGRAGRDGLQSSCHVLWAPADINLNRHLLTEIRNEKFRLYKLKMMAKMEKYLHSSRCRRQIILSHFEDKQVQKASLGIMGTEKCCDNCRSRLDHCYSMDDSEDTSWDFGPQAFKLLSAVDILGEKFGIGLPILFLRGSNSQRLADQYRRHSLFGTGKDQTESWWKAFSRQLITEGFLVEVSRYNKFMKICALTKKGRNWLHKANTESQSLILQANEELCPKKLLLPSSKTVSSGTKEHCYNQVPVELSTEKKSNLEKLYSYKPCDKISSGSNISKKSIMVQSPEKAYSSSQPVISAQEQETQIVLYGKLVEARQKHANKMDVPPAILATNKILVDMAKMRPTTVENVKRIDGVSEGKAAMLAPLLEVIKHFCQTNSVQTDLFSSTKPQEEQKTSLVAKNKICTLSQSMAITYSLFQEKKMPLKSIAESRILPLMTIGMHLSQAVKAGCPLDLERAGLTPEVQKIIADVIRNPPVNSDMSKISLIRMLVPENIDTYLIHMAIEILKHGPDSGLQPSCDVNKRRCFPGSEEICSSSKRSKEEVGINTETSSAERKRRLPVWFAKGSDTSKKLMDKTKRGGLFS
hWRN(519-1227)_C-H3CV-GFP-10His, sequence (Q14191 519-1227): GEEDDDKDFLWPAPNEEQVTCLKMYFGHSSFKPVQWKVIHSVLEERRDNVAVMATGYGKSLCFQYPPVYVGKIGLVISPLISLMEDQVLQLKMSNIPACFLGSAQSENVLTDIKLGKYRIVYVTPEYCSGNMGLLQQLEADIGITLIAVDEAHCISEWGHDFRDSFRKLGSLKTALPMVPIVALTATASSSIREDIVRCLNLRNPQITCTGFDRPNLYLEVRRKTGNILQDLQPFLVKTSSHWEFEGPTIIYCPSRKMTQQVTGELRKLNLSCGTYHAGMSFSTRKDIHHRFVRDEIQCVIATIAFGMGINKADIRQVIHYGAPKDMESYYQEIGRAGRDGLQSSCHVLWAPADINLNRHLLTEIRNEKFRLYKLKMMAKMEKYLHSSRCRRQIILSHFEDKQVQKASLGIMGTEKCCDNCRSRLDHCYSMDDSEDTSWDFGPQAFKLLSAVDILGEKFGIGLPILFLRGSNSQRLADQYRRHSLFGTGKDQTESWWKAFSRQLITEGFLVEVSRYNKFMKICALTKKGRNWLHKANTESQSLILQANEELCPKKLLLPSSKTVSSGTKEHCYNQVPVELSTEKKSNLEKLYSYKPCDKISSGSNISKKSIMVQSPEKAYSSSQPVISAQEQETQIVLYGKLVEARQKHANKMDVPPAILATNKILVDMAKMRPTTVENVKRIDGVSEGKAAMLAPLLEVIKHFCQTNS

C[C@@H](/C=C/S(C)(=O)=O)NC(=O)c1cnc(C2CCCC2)nc1O[C@H]1CCCOC1 [Example 134, 2-cyclopentyl-N—((S,E)-4-(methylsulfonyl)but-3-en-2-yl)-4-(((S)-tetrahydro-2H-pyran-3-yl)oxy)pyrimidine-5-carboxamide] gave an IC50 [1] greater than 100 µM and an IC50 [2, 3] of 53 µM.
In the case of C[C@@H](/C=C/S(C)(=O)=O)NC(=O)c1cnc(C2CCCC2)nc1Oc1ccc(O)cc1 [Example 135, (S,E)-2-cyclopentyl-4-(4-hydroxyphenoxy)-N-(4-(methylsulfonyl)but-3-en-2-yl)pyrimidine-5-carboxamide], the IC50 [1] is reported as 75 µM and the IC50 [2, 3] is reported as 70 µM.
In the case of C[C@@H](/C=C/S(C)(=O)=O)NC(=O)c1cnc(C2CCCC2)nc1Oc1cccc(N)c1 [Example 138, (S,E)-4-(3-aminophenoxy)-2-cyclopentyl-N-(4-(methylsulfonyl)but-3-en-2-yl)pyrimidine-5-carboxamide], the IC50 [1] is reported as greater than 100 µM and the IC50 [2, 3] is reported as 19 µM.
C[C@@H](/C=C/S(C)(=O)=O)NC(=O)c1cnc(C2CC2)nc1OC1CC2(CCC2)C1 [Example 141, (S,E)-2-cyclopropyl-N-(4-(methylsulfonyl)but-3-en-2-yl)-4-(spiro[3.3]heptan-2-yloxy)pyrimidine-5-carboxamide] showed an IC50 [1] greater than 100 µM and an IC50 [2, 3] of 118 µM.
C[C@@H](/C=C/S(C)(=O)=O)NC(=O)c1cnc(C2CC2)nc1OC1CC2(CC2)C1 [Example 142, (S,E)-2-cyclopropyl-N-(4-(methylsulfonyl)but-3-en-2-yl)-4-(spiro[2.3]hexan-5-yloxy)pyrimidine-5-carboxamide] was tested, and the IC50 [1] was 50 µM and the IC50 [2, 3] was 20 µM.
In the case of CC(C)(C)c1ncc(C(=O)NC/C=C/S(C)(=O)=O)c(O[C@H]2C[C@@H]3C[C@@H]3C2)n1 [Example 145, 4-(((1R,3s,5S)-bicyclo[3.1.0]hexan-3-yl)oxy)-2-(tert-butyl)-N—((E)-3-(methylsulfonyl)allyl)pyrimidine-5-carboxamide], the IC50 [1] is reported as greater than 100 µM and the IC50 ([2]; read-out: WRN Helicase IC50, 30 min preincubation with ATP, 30 min reaction) is reported as 59 µM.
For C[C@@H](/C=C/S(C)(=O)=O)NC(=O)c1cnc(C2CC2)nc1OCC1CC1 [Example 150, (S,E)-2-cyclopropyl-4-(cyclopropylmethoxy)-N-(4-(methylsulfonyl)but-3-en-2-yl)pyrimidine-5-carboxamide], the IC50 [1] was greater than 100 µM and the IC50 [2, 3] was 43 µM.
C[C@@H](/C=C/S(C)(=O)=O)NC(=O)c1cnc(C2CC2)nc1O[C@H]1C[C@H](Cl)C1 [Example 151, 4-((1r,3S)-3-chlorocyclobutoxy)-2-cyclopropyl-N—((S,E)-4-(methylsulfonyl)but-3-en-2-yl)pyrimidine-5-carboxamide] was tested, and the IC50 [1] was greater than 100 µM and the IC50 [2, 3] was 59 µM.
For C[C@@H](/C=C/S(C)(=O)=O)NC(=O)c1cnc(C(C)(C)C)nc1OC1CCC(F)(F)CC1 [Example 155, (S,E)-2-(tert-butyl)-4-((4,4-difluorocyclohexyl)oxy)-N-(4-(methylsulfonyl)but-3-en-2-yl)pyrimidine-5-carboxamide], the IC50 [1] was 20 µM and the IC50 [2, 3] was 15 µM.
For C[C@@H](/C=C/S(C)(=O)=O)NC(=O)c1cnc(C(C)(C)C)nc1OC1CC(F)(F)C1 [Example 156, (S,E)-2-(tert-butyl)-4-(3,3-difluorocyclobutoxy)-N-(4-(methylsulfonyl)but-3-en-2-yl)pyrimidine-5-carboxamide], the IC50 [1] was 40 µM and the IC50 [2, 3] was 15 µM.
Compound C[C@@H](/C=C/S(C)(=O)=O)NC(=O)c1cnc(C(C)(C)C)nc1OC1(C#N)CCCC1 [Example 161, (S,E)-2-(tert-butyl)-4-((1-cyanocyclopentyl)oxy)-N-(4-(methylsulfonyl)but-3-en-2-yl)pyrimidine-5-carboxamide] has an IC50 [1] greater than 100 µM and an IC50 [2, 3] of 154 µM.
Work on Cc1nc(C2CCCC2)nc(Oc2ccccc2)c1C(=O)N[C@@H](C)/C=C/S(C)(=O)=O [Example 162, (S,E)-2-cyclopentyl-4-methyl-N-(4-(methylsulfonyl)but-3-en-2-yl)-6-phenoxypyrimidine-5-carboxamide] yielded an IC50 [1] greater than 100 µM and an IC50 [2, 3] of 128 µM.
Compound C[C@@H](/C=C/S(C)(=O)=O)NC(=O)c1cnc(N2CC3(CCC3)C2)nc1Oc1ccccc1 [Example 170, (S,E)-N-(4-(methylsulfonyl)but-3-en-2-yl)-4-phenoxy-2-(2-azaspiro[3.3]heptan-2-yl)pyrimidine-5-carboxamide] has an IC50 [1] greater than 100 µM and an IC50 [2, 3] of 137 µM.
In the case of C[C@@H](/C=C/S(C)(=O)=O)NC(=O)c1cnc(N2CCC(F)(F)C2)nc1Oc1ccccc1 [Example 173, (S,E)-2-(3,3-difluoropyrrolidin-1-yl)-N-(4-(methylsulfonyl)but-3-en-2-yl)-4-phenoxypyrimidine-5-carboxamide], the IC50 [1] is reported as greater than 100 µM and the IC50 [2, 3] is reported as 48 µM.
For CS(=O)(=O)/C=C/[C@@H](NC(=O)c1cnc(N2CC(F)(F)C2)nc1Oc1ccccc1)C1CC1 [Example 183, (S,E)-N-(1-cyclopropyl-3-(methylsulfonyl)allyl)-2-(3,3-difluoroazetidin-1-yl)-4-phenoxypyrimidine-5-carboxamide], the IC50 [1] was 64.4 µM and the IC50 [2, 3] was 2.9 µM.
Work on CN(C/C=C/S(C)(=O)=O)C(=O)c1cnc(C2CCCC2)nc1Oc1ccccc1 [Example 187, (E)-2-cyclopentyl-N-methyl-N-(3-(methylsulfonyl)allyl)-4-phenoxypyrimidine-5-carboxamide] yielded an IC50 [1] greater than 100 µM and an IC50 [2, 3] of 52 µM.
C[C@@H](/C=C/S(C)(=O)=O)NC(=O)c1cnc(C2CC2)c(F)c1Oc1ccccc1 [Example 205, (S,E)-6-cyclopropyl-5-fluoro-N-(4-(methylsulfonyl)but-3-en-2-yl)-4-phenoxynicotinamide] showed an IC50 [1] greater than 100 µM and an IC50 [2, 3] of 20 µM.
C[C@@H](/C=C/S(C)(=O)=O)NC(=O)c1ncc(C2=CCCC2)nc1Oc1ccccc1 [Example 207, (S,E)-5-(cyclopent-1-en-1-yl)-N-(4-(methylsulfonyl)but-3-en-2-yl)-3-phenoxypyrazine-2-carboxamide] gave an IC50 [1] greater than 100 µM and an IC50 [2, 3] of 52 µM.
CS(=O)(=O)/C=C/CNC(=O)c1cnc(-c2ccn[nH]2)nc1Oc1ccccc1 [Example 209, (E)-N-(3-(methylsulfonyl)allyl)-4-phenoxy-2-(1H-pyrazol-5-yl)pyrimidine-5-carboxamide] was tested, and the IC50 [1] was greater than 100 µM and the IC50 [2, 3] was 18 µM.
C[C@@H](/C=C/S(C)(=O)=O)NC(=O)c1cnc(C2=CCCOC2)nc1Oc1ccccc1 [Example 211, (S,E)-2-(5,6-dihydro-2H-pyran-3-yl)-N-(4-(methylsulfonyl)but-3-en-2-yl)-4-phenoxypyrimidine-5-carboxamide] gave an IC50 [1] greater than 100 µM and an IC50 [2, 3] of 51 µM.
C[C@@H](/C=C/S(C)(=O)=O)NC(=O)c1cnc(C2CCCOC2)nc1Oc1ccccc1 (stereo partly drawn) [Example 212, N—((S,E)-4-(methylsulfonyl)but-3-en-2-yl)-4-phenoxy-2-(tetrahydro-2H-pyran-3-yl)pyrimidine-5-carboxamide] gave an IC50 [1] greater than 100 µM and an IC50 [2, 3] of 31 µM.
With CS(=O)(=O)/C=C/[C@@H](NC(=O)c1cc2c(nc1Oc1ccccc1)C(F)(F)CC2)C1CC1 [Example 237, (S,E)-N-(1-cyclopropyl-3-(methylsulfonyl)allyl)-7,7-difluoro-2-phenoxy-6,7-dihydro-5H-cyclopenta[b]pyridine-3-carboxamide] the IC50 [1] was 0.5 µM and the IC50 [2, 3] was 17 µM.
For C[C@@H](/C=C/S(C)(=O)=O)NC(=O)c1cnc(C2CCOCC2)nc1Oc1ccccc1 [Example 238, (S,E)-N-(4-(methylsulfonyl)but-3-en-2-yl)-4-phenoxy-2-(tetrahydro-2H-pyran-4-yl)pyrimidine-5-carboxamide], the IC50 [1] was greater than 100 µM and the IC50 [2, 3] was 53 µM.
C[C@@H](/C=C/S(C)(=O)=O)NC(=O)c1cnc(C2CCCC2)nc1C1CCCCC1 [Example 239, (S,E)-4-cyclohexyl-2-cyclopentyl-N-(4-(methylsulfonyl)but-3-en-2-yl)pyrimidine-5-carboxamide] showed an IC50 [1] greater than 100 µM and an IC50 [2, 3] of 148 µM.
Compound C[C@@H](/C=C/S(C)(=O)=O)NC(=O)c1cnc(CC2CCCCC2)nc1Oc1ccccc1 [Example 240, (S,E)-2-(cyclohexylmethyl)-N-(4-(methylsulfonyl)but-3-en-2-yl)-4-phenoxypyrimidine-5-carboxamide] has an IC50 [1] greater than 100 µM and an IC50 [2, 3] of 67 µM.
Compound C[C@@H](/C=C/S(C)(=O)=O)NC(=O)c1cc2c(nc1Oc1ccccc1)CCC2 [Example 243, (S,E)-N-(4-(methylsulfonyl)but-3-en-2-yl)-2-phenoxy-6,7-dihydro-5H-cyclopenta[b]pyridine-3-carboxamide] has an IC50 [1] greater than 100 µM and an IC50 [2, 3] of 43 µM.
COc1ncc(C(=O)N[C@H](/C=C/S(C)(=O)=O)C2CC2)c(Oc2ccccc2)n1 [Example 244, (S,E)-N-(1-cyclopropyl-3-(methylsulfonyl)allyl)-2-methoxy-4-phenoxypyrimidine-5-carboxamide] showed an IC50 [1] of 0.49 µM and an IC50 [2, 3] of 20 µM.
In the case of CC(=O)Nc1nc(C2CCCC2)nc(Oc2ccccc2)c1C(=O)N[C@@H](C)/C=C/S(C)(=O)=O [Example 256, (S,E)-4-acetamido-2-cyclopentyl-N-(4-(methylsulfonyl)but-3-en-2-yl)-6-phenoxypyrimidine-5-carboxamide], the IC50 [1] is reported as greater than 100 µM and the IC50 [2, 3] is reported as 42 µM.
For C[C@@H](/C=C/S(C)(=O)=O)NC(=O)c1cnc(C2CC2)c2c1OC1(CCCC1)C2 [Example 259, (S,E)-4′-cyclopropyl-N-(4-(methylsulfonyl)but-3-en-2-yl)-3′H-spiro[cyclopentane-1,2′-furo[3,2-c]pyridine]-7′-carboxamide], the IC50 [1] was 0.12 µM and the IC50 [2] was 7 µM.
With CC(C)Oc1cc(C2CCCC2)ccc1C(=O)NC/C=C/S(C)(=O)=O [Example 281, (E)-4-cyclopentyl-2-isopropoxy-N-(3-(methylsulfonyl)allyl)benzamide] the IC50 [1] was 41.8 µM and the IC50 [2, 3] was 51 µM.
